Measurements from ChEMBL document CHEMBL1132891, “Carbacyclic peptide mimetics as VCAM-VLA-4 antagonists” (Bioorg Med Chem Lett, 2000).

Target: T1, Integrin alpha-4 (Homo sapiens, UniProt P13612)
T1 sequence (P13612 whole entry): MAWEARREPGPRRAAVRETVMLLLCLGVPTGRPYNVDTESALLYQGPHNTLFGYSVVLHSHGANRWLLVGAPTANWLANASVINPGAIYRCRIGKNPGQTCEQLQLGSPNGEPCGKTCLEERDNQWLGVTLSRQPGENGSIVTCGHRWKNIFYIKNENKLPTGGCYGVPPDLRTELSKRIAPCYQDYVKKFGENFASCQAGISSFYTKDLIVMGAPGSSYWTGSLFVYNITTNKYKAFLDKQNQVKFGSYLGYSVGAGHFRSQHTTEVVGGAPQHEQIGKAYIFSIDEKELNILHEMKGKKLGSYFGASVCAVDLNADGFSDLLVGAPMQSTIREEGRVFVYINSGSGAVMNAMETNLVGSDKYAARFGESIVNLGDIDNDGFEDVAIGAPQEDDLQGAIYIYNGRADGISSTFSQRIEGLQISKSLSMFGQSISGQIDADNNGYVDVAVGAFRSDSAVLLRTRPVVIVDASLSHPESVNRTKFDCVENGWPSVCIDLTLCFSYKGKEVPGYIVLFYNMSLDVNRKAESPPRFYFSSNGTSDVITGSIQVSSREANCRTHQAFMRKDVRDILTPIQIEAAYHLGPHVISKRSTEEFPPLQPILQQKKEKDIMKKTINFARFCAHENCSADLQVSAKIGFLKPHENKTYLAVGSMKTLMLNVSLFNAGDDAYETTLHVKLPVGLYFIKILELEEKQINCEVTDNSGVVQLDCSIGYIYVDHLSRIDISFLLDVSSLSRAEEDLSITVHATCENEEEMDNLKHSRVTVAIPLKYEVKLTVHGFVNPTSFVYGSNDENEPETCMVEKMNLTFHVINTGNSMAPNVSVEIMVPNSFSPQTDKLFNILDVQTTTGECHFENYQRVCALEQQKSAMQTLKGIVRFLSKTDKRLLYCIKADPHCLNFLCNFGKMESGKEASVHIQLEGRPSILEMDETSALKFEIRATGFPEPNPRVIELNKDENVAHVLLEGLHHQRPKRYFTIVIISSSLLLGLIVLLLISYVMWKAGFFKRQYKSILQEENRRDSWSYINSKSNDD
Test: Inhibitory concentration against VLA-4 receptor using human VCAM-VLA-4 binding assay

Structure (SMILES) | IC50 [nM]
N[C@@H](Cc1ccc(O)cc1)C(=O)N/C1=C/CCC[C@@H](C(=O)O)NC(=O)C2(CCCC2)CCNC1=O | 160
N[C@@H](Cc1ccc(O)cc1)C(=O)N[C@H]1CSSC[C@@H](C(=O)O)NC(=O)C2(CCCC2)CCNC1=O | 0.5
N[C@@H](Cc1ccc(O)cc1)C(=O)NC1CCCCC[C@@H](C(=O)O)NC(=O)C2(CCCC2)CCNC1=O (stereo in doubt; 15b) | 750
N[C@@H](Cc1ccc(O)cc1)C(=O)N/C1=C/CCCC[C@@H](C(=O)O)NC(=O)C2(CCCC2)CCNC1=O | 330
N[C@@H](Cc1ccc(O)cc1)C(=O)NC1CCCC[C@@H](C(=O)O)NC(=O)C2(CCCC2)CCNC1=O (stereo in doubt; 15a) | 89
N[C@@H](Cc1ccc(O)cc1)C(=O)NC1CCCC[C@@H](C(=O)O)NC(=O)C2(CCCC2)CCNC1=O (stereo in doubt; 14a) | 44
N[C@@H](Cc1ccc(O)cc1)C(=O)NC1CCCCC[C@@H](C(=O)O)NC(=O)C2(CCCC2)CCNC1=O (stereo in doubt; 14b) | 550
